Laboratory results as given in patent US20100310504A1, “METHODS FOR TREATING FIBROSIS BY MODULATING CELLULAR SENESCENCE” (priority 2007, published 2010).
Entries after “also recorded” stand apart in the source; their conditions may differ.

Assays:
[1] = test system: primary human activated HSCs; assay: Senescence induction in cultured primary human activated HSCs; assay type: cell-based; conditions: etoposide 100 μM, within several days of treatment
liver = conditions: mouse, in vivo
Experimental: Animals. […] Wild type, p53^−/−, INK4a/Arf^−/− and p53^−/−;INK4a/Arf^−/− mice were treated twice a week with 12 consecutive i.p. (intraperitoneal) injections of 1 ml/kg CCl4 to induce liver fibrosis. GFAP-tTA;TRE-shp53 mice were treated similarly for 2 weeks. Animals were sacrificed 48-72 hours after the last injection and their livers used for further analysis. To modify NK cell function, mice were treated three times weekly either i.v. with an anti-Asialo-GM1 antibody (25 μl in 200 μl saline, Wako, Va., USA) for 10 or 20 days or i.p. with polyI:C (Sigma, USA) 1 mg/kg.
Histological analysis. Paraffin embedded tissue sections were stained with hematoxylin-eosin for routine examination, or with Sirius Red for visualization of fibrotic deposition. At least 3 whole sections from each animal were scanned by Laser Scanner Cytometry (CompuCyte, MA) for fibrosis quantification. These images were quantified using NIH ImageJ software (http://rsb.info.nih.gov/ij/). We calculated the amount of fibrotic tissue in diseased animals relatively to the basal amount of Sirius Red staining present in normal liver.
Frozen sections of liver tissue, or adherent cells were fixed with 0.5% Gluteraldehyde in PBS for 15 min, washed with PBS supplemented with 1 mM MgCl2 and stained for 5-6 hrs in PBS containing 1 mM MgCl2, 1 mg/ml X-Gal and 5 mM of each Potassium ferricyanide and Potassium ferrocyanide. Sections were counterstained with Eosin.
To investigate the relationship between fibrosis and cellular senescence, 7-9 week old female mice were subjected to a six week treatment with CCl4, a chemical widely used to induce fibrosis in experimental animals (Bataller and Brenner, 2005, J. Clin. Invest. 115, 209-218, the contents of which are hereby incorporated by reference).

senescent IMR-90 cells = assay: In vitro killing assay of growing and senescent IMR-90 cells by YT cells (NK cell line); assay type: cell-based, human; conditions: range of target:effector cell ratios
Experimental: Tissue culture. Human IMR-90 foetal lung fibroblasts (ATCC) and primary human hepatic myofibroblasts (activated HSCs) (Dominion Pharmakine, Spain) were grown in standard conditions (Narita et al., 2003). Senescence was induced by prolonged culturing, etoposide (100 μM, Sigma, USA) treatment, or infection of IMR-90 cells with oncogenic rasV12 as described (Narita et al., 2003). For in vitro cytotoxicity assays, growing or senescent cells were plated in 6-well plates at 50,000 cells per well. 5×10^5 YT cells (from DSMZ, Germany) were subsequently added to target cells. The plates were incubated under normal conditions for 12 hours, and then NK cell cytotoxicity was determined using crystal violet staining of remaining adherent cells or followed with a Zeiss AxioObserver microscope equipped with 37° C. incubator hood and 6.3% CO2 cover.
To test if a Perforin mediated pathway is involved in senescent cell killing in vitro, the in vitro killing assays of growing and senescent IMR-90 cells were used (the assay is described at Krizhanovsky, V. et al., “Senescence of Activated Stellate Cells Limits Liver Fibrosis,” Cell, 134, 657-667 (Aug. 22, 2008), which is hereby incorporated by reference). Growing and senescent IMR-90 cells were incubated with different amounts of YT cells (NK cell line) in presence or absence of granule exocytosis pathway inhibitor Concanamycin A (CMA). […]

[2] = test system: senescent activated HSCs in fibrotic livers; assay: Fibrosis reversion and senescent cell clearance in CCl4 treated mice with modified NK cell function; assay type: in vivo, mouse
Experimental: Animals. […] GFAP-tTA mice were obtained from the Jackson Laboratory.
Sections were counterstained with Eosin.
Immunoblotting. Liver tissue was lysed in Laemmli buffer using a tissue homogenizer. Equal amounts of protein were separated on 12% SDS-polyacrylamide gels and transferred to PVDF membranes. Detection was performed using anti-αSMA (DakoCytomation, Denmark), anti-13Actin (AC-15, Sigma, USA).
Expression array analysis and quantitative RT-PCR. […] Affymetrix Human Genome U133 Plus 2.0Array were used to identify genes expressed in HSC.
To determine whether NK cells can target senescent cells in vivo and their impact on liver fibrosis, modulating NK cell function was tested for how it would influence the frequency of senescent activated HSCs and fibrosis resolution in livers obtained from mice following a six week course of CCl4 or at various times after ceasing treatment. To deplete NK cells mice were treated with neutralizing antibodies [anti-AsialoGM1 (Radaeva et al., 2006; Xue et al., 2007)] during the period following CCl4 withdrawal. Conversely, to enhance the immune response, we treated mice with polyinosinic-polycytidylic acid (polyI:C), which induces interferon-γ and enhances NK cell activity in the liver (Radaeva et al., 2006).

[3] = wild type mice after six week CCl4, treated 10 or 20 days following CCl4 withdrawal, compared to saline controls

COc1cc([C@@H]2c3cc4c(cc3[C@@H](O[C@@H]3O[C@@H]5CO[C@@H](C)O[C@H]5[C@H](O)[C@H]3O)[C@H]3COC(=O)[C@H]23)OCO4)cc(OC)c1O [etoposide]
senescence of activated HSCs (proliferation stop, SA-β-gal activity, heterochromatic foci) [1]: undergo senescence

ClC(Cl)(Cl)Cl [CCl4]
accumulation of senescent cells in livers of treated mice (liver): accumulated in fibrotic livers
increase in Sirius Red-positive area over untreated controls (liver): 3 to 4 fold
liver area Sirius Red-positive (quantitative laser scanning cytometry) (liver): Approximately 2%

3,5-diethoxycarbonyl-1,4-dihydrocollidine [DDC]
accumulation of senescent cells in livers of treated mice (liver): accumulated

C/C=C/[C@H]1O[C@@](O)([C@@H](C)[C@H](O)[C@H](C)[C@H]2OC(=O)/C(OC)=C/C(C)=C/[C@@H](C)[C@@H](O)[C@@H](CC)[C@@H](O)[C@H](C)C/C(C)=C/C=C/[C@@H]2OC)C[C@@H](O[C@H]2C[C@@H](O)[C@H](OC(N)=O)[C@@H](C)O2)[C@@H]1C [CMA, Concanamycin A]
preferential killing of senescent cells by NK cells (YT) in presence of inhibitor (senescent IMR-90 cells): significantly inhibited

polyinosinic-polycytidylic acid [polyI:C]
αSMA mRNA and protein levels in fibrotic livers (activated HSC marker) ([2]; quantitative RT-PCR and immunoblot, 10 days treatment after CCl4, compared to saline): decreased
fibrosis / fibrotic tissue (Sirius Red staining) [2, 3]: less fibrotic tissue; also recorded: depleted more efficiently
senescent cells (SA-β-gal positive) in fibrotic liver [2, 3]: fewer senescent cells; also recorded: enhanced clearance of senescent cells
